Patent publication US20110097274A1, “Carbon-11 and fluorine-18 labeled radioligands for positron emission tomography (PET) imaging for the brain serotonin transporters” (priority 2002, published 2011)

What was measured:
[1] = Experiment 5: plasma clearance of ^11C and ^18F labeled AFM, AFA, AFE in one baboon; type: in vivo; conditions: one adult male baboon, n = 1 to 4 scans
Procedure: (§1) General scanning methods were as described in Huang et al. (2002). Arterial input function was measured and corrected for metabolites.

[2] = Experiment 4: plasma analysis, [^11C]AFM and [^18F]AFM in the same baboon
Procedure: The animal was then injected with [^18F]AFM (2.60 mCi, 425 Ci/mmol, 1.51 μg) and scanned for 90 minutes. […] Arterial activity was corrected for parent fraction to form the input function.

[3] = system: SERT; assay: Experiment 5: PET brain imaging of ^11C and ^18F labeled AFM, AFA, AFE in one baboon; type: in vivo; conditions: one adult male baboon, n = 1 to 4 scans, two-compartment model
Procedure: as §1
Activity distributed in the brain in accordance to the known density distribution pattern of SERT (Laruelle et al., 1988). […] Data were analyzed with a two-compartment model, using the metabolite-corrected arterial time-activity curve as input function. This analysis provided the regional distribution volumes (VT, mL/g).
The nonspecific distribution volume, measured as the distribution volume of the cerebellum (a region with negligible SERT density) was in a similar range for all tracers (10 to 30 mL/g, Table 16).
The specific to nonspecific partition coefficient, V3″, was calculated as the ratio of VT in the region of interest (ROI) to cerebellum VT minus one. V3″ provides a measure related to receptor parameters as follows: […]

[4] = system: SERT; conditions: same baboon, one tissue compartment model
Procedure: The animal was then injected with [^18F]AFM (2.60 mCi, 425 Ci/mmol, 1.51 μg) and scanned for 90 minutes. Analysis of the input function and brain uptake was performed as described in the previous section. […] Arterial activity was corrected for parent fraction to form the input function.
Data were analyzed with a one tissue compartment model.

[5] = Biodistribution of labeled radioligands in male Sprague-Dawley rats; type: in vivo; conditions: mean ± SD, n = 3
Source text: Appropriately labeled compounds were studied in animals to assess their binding characteristics in the brain. Procedures for these biodistribution studies are as follows. […] The brain regions (cerebellum, hippocampus, striatum, frontal cortex, thalamus and hypothalamus), along with samples of blood and part of the tail, were removed, weighed, and counted in a Packard Cobra II gamma counter. The percent injected dose (% ID) of the decay- and tail-corrected activity in the brain regions and blood were calculated based upon C-11 standards prepared from the injection solution, and the % ID/g were calculated using the tissue weights.

[6] = baboons (Acton et al., 1999a); cited from earlier work
[7] = system: SERT; conditions: literature; cited from earlier work

CN(C)Cc1ccccc1Sc1ccc(C[18F])cc1N [[^18F]AFM, [^18F]2-[2-(Dimethylaminomethyl)phenylthio]-5-fluoromethylphenylamine]
Clearance [1]: 40 ± 1 L/h
Clearance of the parent compound [2]: 54 L/h
Percent plasma activity corresponding to the parent compound ([2]; 2 minutes): 63.5%
Percent plasma activity corresponding to the parent compound ([2]; 4 minutes): 40.0%
Percent plasma activity corresponding to the parent compound ([2]; 12 minutes): 21.3%
Percent plasma activity corresponding to the parent compound ([2]; 30 minutes): 8.7%
Percent plasma activity corresponding to the parent compound ([2]; 60 minutes): 5.3%
Percent plasma activity corresponding to the parent compound ([2]; 90 minutes): 4.6%
Cerebellum V (nonspecific distribution volume) [3]: 23 ± 6 mL/g
Thalamus V3″ [4]: 2.27
% ID/g Blood ([5]; 10 min post-injection): 0.37 ± 0.04 % ID/g
% ID/g Cerebellum ([5]; 10 min post-injection): 0.33 ± 0.04 % ID/g
% ID/g Frontal Ctx. ([5]; 10 min post-injection): 0.82 ± 0.14 % ID/g
% ID/g Hippocamp. ([5]; 10 min post-injection): 0.51 ± 0.07 % ID/g
% ID/g Hypothal. ([5]; 10 min post-injection): 0.70 ± 0.08 % ID/g
% ID/g Striatum ([5]; 10 min post-injection): 0.69 ± 0.15 % ID/g
% ID/g Thalamus ([5]; 10 min post-injection): 0.72 ± 0.13 % ID/g
% ID/g Blood ([5]; 30 min post-injection): 0.28 ± 0.02 % ID/g
% ID/g Cerebellum ([5]; 30 min post-injection): 0.23 ± 0.03 % ID/g
% ID/g Frontal Ctx. ([5]; 30 min post-injection): 0.99 ± 0.20 % ID/g
% ID/g Hippocamp. ([5]; 30 min post-injection): 0.64 ± 0.12 % ID/g
% ID/g Hypothal. ([5]; 30 min post-injection): 0.82 ± 0.16 % ID/g
% ID/g Striatum ([5]; 30 min post-injection): 0.83 ± 0.12 % ID/g
% ID/g Thalamus ([5]; 30 min post-injection): 0.88 ± 0.06 % ID/g
% ID/g Blood ([5]; 60 min post-injection): 0.10 ± 0.04 % ID/g
% ID/g Cerebellum ([5]; 60 min post-injection): 0.13 ± 0.02 % ID/g
% ID/g Frontal Ctx. ([5]; 60 min post-injection): 0.71 ± 0.18 % ID/g
% ID/g Hippocamp. ([5]; 60 min post-injection): 0.45 ± 0.09 % ID/g
% ID/g Hypothal. ([5]; 60 min post-injection): 0.71 ± 0.14 % ID/g
% ID/g Striatum ([5]; 60 min post-injection): 0.57 ± 0.12 % ID/g
% ID/g Thalamus ([5]; 60 min post-injection): 0.67 ± 0.15 % ID/g
% ID/g Blood ([5]; 90 min post-injection): 0.08 ± 0.03 % ID/g
% ID/g Cerebellum ([5]; 90 min post-injection): 0.08 ± 0.01 % ID/g
% ID/g Frontal Ctx. ([5]; 90 min post-injection): 0.52 ± 0.19 % ID/g
% ID/g Hippocamp. ([5]; 90 min post-injection): 0.36 ± 0.12 % ID/g
% ID/g Hypothal. ([5]; 90 min post-injection): 0.58 ± 0.13 % ID/g
% ID/g Striatum ([5]; 90 min post-injection): 0.45 ± 0.17 % ID/g
% ID/g Thalamus ([5]; 90 min post-injection): 0.50 ± 0.15 % ID/g
% ID/g Blood ([5]; 120 min post-injection): 0.04 ± 0.00 % ID/g
% ID/g Cerebellum ([5]; 120 min post-injection): 0.07 ± 0.02 % ID/g
% ID/g Frontal Ctx. ([5]; 120 min post-injection): 0.38 ± 0.09 % ID/g
% ID/g Hippocamp. ([5]; 120 min post-injection): 0.28 ± 0.05 % ID/g
% ID/g Hypothal. ([5]; 120 min post-injection): 0.55 ± 0.08 % ID/g
% ID/g Striatum ([5]; 120 min post-injection): 0.42 ± 0.10 % ID/g
% ID/g Thalamus ([5]; 120 min post-injection): 0.56 ± 0.10 % ID/g

CN(C)Cc1ccccc1Sc1ccc([123I])cc1N [[^123I]ADAM]
VT CER measured with SPECT [6]: 2.25 ± 0.46 mL/g
Target to background ratio in vivo compared to [^123I]IDAM [7]: four times higher
